In publication PMC5217372, “Activation of SsoPK4, an Archaeal eIF2α Kinase Homolog, by Oxidized CoA” (Proteomes, 2015):
Where “and” joins values, the source holds several entries; their conditions need not be identical. Equal entries are not always repeated.

T1: rSsoPK4(284–635) (Saccharolobus solfataricus, UniProt Q97U41)
T1 construct: gene SSO3182; residues 284–635 (catalytic and part of central helical repeat domain), N-terminal S-tag, C-terminal 33-residue fusion domain with polyhistidine motif, pET-29b, expressed in E. coli
T1 sequence (Q97U41 284-635): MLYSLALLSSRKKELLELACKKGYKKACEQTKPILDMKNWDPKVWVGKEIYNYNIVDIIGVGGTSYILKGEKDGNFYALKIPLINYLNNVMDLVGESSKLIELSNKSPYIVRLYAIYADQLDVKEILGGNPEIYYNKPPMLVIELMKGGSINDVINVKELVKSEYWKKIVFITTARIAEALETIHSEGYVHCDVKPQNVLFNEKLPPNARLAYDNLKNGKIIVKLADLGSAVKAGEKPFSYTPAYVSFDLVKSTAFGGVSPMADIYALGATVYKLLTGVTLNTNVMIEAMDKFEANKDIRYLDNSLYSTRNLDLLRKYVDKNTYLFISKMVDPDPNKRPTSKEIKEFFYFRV


Legend:
rSsoPK4(284–635) [1] = molecular target: T1, rSsoPK4(284–635); test: Filter paper [γ-32P]ATP kinase assay with MBP as phosphoacceptor, ATP routinely 100 µM, 5 mM MgCl2 and 5 mM MnCl2, 50 mM MOPS pH 7.0, 65 °C, in the presence of nucleotide effectors.; type: biochemical
Procedure: (§1) Protein kinase activity was routinely assayed by the filter paper method of Corbin and Reimann as modified by Lower and Kennelly. The final volume of the assays was typically 50 μL. The quantity of rSsoPK4 assayed ranged from 0.1 to 5.0 µg. Both MgCl2 and MnCl2 were included at a final concentration of 5 mM each. The final concentration of [γ-^32P]ATP was 100 μM. The specific activity of the [γ-^32P]ATP generally ranged from 2 to 5 × 10^15 cpm/mol. Phosphoacceptor proteins were generally present at a concentration of 0.5–1.0 µg/µL. The assay mixture was typically incubated for a period of 30 min to one hour at 65 °C in 50 mM MOPS pH 7.0. On occasion, the proteins within the assay mixture were resolved by SDS-PAGE in order to identify the specific polypeptides that were phosphorylated. Radiolabeled species were visualized using an Instant Imager from Packard (Downers Grove, IL, USA).

rSsoPK4(284–635) [2] = test: Protein kinase activity assay (filter paper method, [γ-32P]ATP, 65 °C) of rSsoPK4(284–635); type: biochemical, Sulfolobus solfataricus; details: for perturbed the activity of rSsoPK4: compound at 100 µM; for Inhibitor: effector at 100 µM, MBP as phosphoacceptor substrate; for Km / Vmax toward protein substrate: no CoAS-SCoA, label = protein substrate, estimated
Procedure: as §1

[3] = system: rSsoPK4(284–635) T592D/T606D/S611D; test: Protein kinase activity assay of rSsoPK4(284–635) T592D/T606D/S611D; type: biochemical, Sulfolobus solfataricus; details: no CoAS-SCoA; label = protein substrate
Procedure: Figure 9 CoAS-SCoA activates rSsoPK4(284–635), but not rSsoPK4(284–635) T592D/T606D/S611D, in a concentration-dependent manner. The activity of rSsoPK4(284–635) (OPEN […]) and rSsoPK4(284–635) T592D/T606D/S611D (OPEN CIRCLES) were assayed, in duplicate, in the presence of the indicated concentrations of CoAS-SCoA using MBP as substrate. Shown is a plot of the activity relative to that measured in the absence of CoAS-SCoA, which was normalized as 1.0, plus or minus mean average deviation.

| Molecule | Inhibitor (rSsoPK4(284–635) [2]) | further results |
| --- | --- | --- |
| Nc1ncnc2c1ncn2[C@@H]1O[C@H](CO)[C@H]2OP(=O)(O)O[C@H]21 [2ʹ,3ʹ-cAMP, 2ʹ,3ʹ-cyclic AMP] |  | IC50 (rSsoPK4(284–635) [1]): 1550 µM |
| Nc1ncnc2c1ncn2[C@@H]1O[C@H](CO)[C@H]2OP(=O)(O)O[C@H]21 [2ʹ,3ʹ-cAMP] | Y (designated as inhibitors (Y) if they were observed to stimulate or reduce, respectively, catalytic activity by greater than 20% relative to controls lacking added effectors) | perturbed the activity of rSsoPK4 (rSsoPK4(284–635) [2]): perturbed the activity |
| Nc1ncnc2c1ncn2[C@@H]1O[C@H](CO)[C@@H](OP(=O)(O)O)[C@H]1O [3ʹ-AMP, adenosine 3'-monophosphate] |  | IC50 (rSsoPK4(284–635) [1]): 2100 µM |
| Nc1ncnc2c1ncn2[C@@H]1O[C@H](CO)[C@@H](OP(=O)(O)O)[C@H]1O [3ʹ-AMP] | Y (designated as inhibitors (Y) if they were observed to stimulate or reduce, respectively, catalytic activity by greater than 20% relative to controls lacking added effectors) | perturbed the activity of rSsoPK4 (rSsoPK4(284–635) [2]): perturbed the activity |
| Nc1ncnc2c1ncn2[C@@H]1O[C@H](COP(=O)(O)O)[C@@H](O)[C@H]1O [5'AMP, 5ʹ-AMP] | Y (designated as inhibitors (Y) if they were observed to stimulate or reduce, respectively, catalytic activity by greater than 20% relative to controls lacking added effectors) | perturbed the activity of rSsoPK4 (rSsoPK4(284–635) [2]): perturbed the activity |
| Nc1ncnc2c1ncn2[C@@H]1O[C@H](COP(=O)(O)O)[C@@H](O)[C@H]1O [5'AMP, adenosine 5'-monophosphate] |  | IC50 (rSsoPK4(284–635) [1]): 920 µM |
| Nc1ccn([C@@H]2O[C@H](COP(=O)(O)O)[C@@H](O)[C@H]2O)c(=O)n1 [5ʹ-CMP] | N (Where a change of ±20% or less in enzyme activity was observed, the compound was designated as non-inhibitory (N)) |  |
| Nc1nc2c(ncn2[C@@H]2O[C@H](COP(=O)(O)O)[C@@H](O)[C@H]2O)c(=O)[nH]1 [5ʹ-GMP] | N (Where a change of ±20% or less in enzyme activity was observed, the compound was designated as non-inhibitory (N)) |  |
| O=c1ccn([C@@H]2O[C@H](COP(=O)(O)O)[C@@H](O)[C@H]2O)c(=O)[nH]1 [5ʹ-UMP] | N (Where a change of ±20% or less in enzyme activity was observed, the compound was designated as non-inhibitory (N)) |  |
| Nc1ncnc2c1ncn2[C@H]1C[C@H](O)[C@@H](COP(=O)(O)O)O1 [5ʹ-dAMP] | N (Where a change of ±20% or less in enzyme activity was observed, the compound was designated as non-inhibitory (N)) |  |
| Nc1ncnc2c1ncn2[C@@H]1O[C@H](COP(=O)(O)OP(=O)(O)O)[C@@H](O)[C@H]1O [ADP] | Y (designated as inhibitors (Y) if they were observed to stimulate or reduce, respectively, catalytic activity by greater than 20% relative to controls lacking added effectors) | perturbed the activity of rSsoPK4 (rSsoPK4(284–635) [2]): perturbed the activity |
| CC(=O)SCCNC(=O)CCNC(=O)[C@H](O)C(C)(C)COP(=O)(O)OP(=O)(O)OC[C@H]1O[C@@H](n2cnc3c(N)ncnc32)[C@H](O)[C@@H]1OP(=O)(O)O [Acetyl-CoA] | N (Where a change of ±20% or less in enzyme activity was observed, the compound was designated as non-inhibitory (N)) |  |
| Nc1ncnc2c1ncn2[C@@H]1O[C@H](COP(=O)(O)OS(=O)(=O)O)[C@@H](O)[C@H]1O [Adenosine phosphosulfate] | Y (designated as inhibitors (Y) if they were observed to stimulate or reduce, respectively, catalytic activity by greater than 20% relative to controls lacking added effectors) | perturbed the activity of rSsoPK4 (rSsoPK4(284–635) [2]): perturbed the activity |
| CC(C)(COP(=O)(O)OP(=O)(O)OC[C@H]1O[C@@H](n2cnc3c(N)ncnc32)[C@H](O)[C@@H]1OP(=O)(O)O)[C@@H](O)C(=O)NCCC(=O)NCCS [CoASH, reduced CoA] | N (Where a change of ±20% or less in enzyme activity was observed, the compound was designated as non-inhibitory (N)) |  |
| Cc1cc2nc3c(=O)[nH]c(=O)nc-3n(C[C@H](O)[C@H](O)[C@H](O)COP(=O)(O)OP(=O)(O)OC[C@H]3O[C@@H](n4cnc5c(N)ncnc54)[C@H](O)[C@@H]3O)c2cc1C [FAD^+] | N (Where a change of ±20% or less in enzyme activity was observed, the compound was designated as non-inhibitory (N)) |  |
| Nc1nc2c(ncn2[C@@H]2O[C@H](COP(=O)(O)OP(=O)(O)OP(=O)(O)O)[C@@H](O)[C@H]2O)c(=O)[nH]1 [GTP] | N (Where a change of ±20% or less in enzyme activity was observed, the compound was designated as non-inhibitory (N)) |  |
| NC(=O)C1=CN([C@@H]2O[C@H](COP(=O)(O)OP(=O)(O)OC[C@H]3O[C@@H](n4cnc5c(N)ncnc54)[C@H](O)[C@@H]3O)[C@@H](O)[C@H]2O)C=CC1 [NADH] | N (Where a change of ±20% or less in enzyme activity was observed, the compound was designated as non-inhibitory (N)) |  |
| NC(=O)C1=CN([C@@H]2O[C@H](COP(=O)(O)OP(=O)(O)OC[C@H]3O[C@@H](n4cnc5c(N)ncnc54)[C@H](OP(=O)(O)O)[C@@H]3O)[C@@H](O)[C@H]2O)C=CC1 [NADPH] | N (Where a change of ±20% or less in enzyme activity was observed, the compound was designated as non-inhibitory (N)) |  |
| NC(=O)c1ccc[n+]([C@@H]2O[C@H](COP(=O)([O-])OP(=O)(O)OC[C@H]3O[C@@H](n4cnc5c(N)ncnc54)[C@H](OP(=O)(O)O)[C@@H]3O)[C@@H](O)[C@H]2O)c1 [NADP^+] | N (Where a change of ±20% or less in enzyme activity was observed, the compound was designated as non-inhibitory (N)) |  |
| NC(=O)c1ccc[n+]([C@@H]2O[C@H](COP(=O)([O-])OP(=O)(O)OC[C@H]3O[C@@H](n4cnc5c(N)ncnc54)[C@H](O)[C@@H]3O)[C@@H](O)[C@H]2O)c1 [NAD^+] | N (Where a change of ±20% or less in enzyme activity was observed, the compound was designated as non-inhibitory (N)) |  |
| Nc1ncnc2c1ncn2[C@@H]1O[C@H](COP(=O)(O)OS(=O)(=O)O)[C@@H](OP(=O)(O)O)[C@H]1O [Phosphoadenosine phosphosulfate] | N (Where a change of ±20% or less in enzyme activity was observed, the compound was designated as non-inhibitory (N)) |  |
| C[S+](CC[C@H](N)C(=O)[O-])C[C@H]1O[C@@H](n2cnc3c(N)ncnc32)[C@H](O)[C@@H]1O (some centres unmarked) [S-Adenosyl-Methionine] | N (Where a change of ±20% or less in enzyme activity was observed, the compound was designated as non-inhibitory (N)) |  |
| Nc1ncnc2c1ncn2[C@@H]1O[C@H](CSCC[C@H](N)C(=O)O)[C@@H](O)[C@H]1O [S-Adenosyl-homocysteine] | N (Where a change of ±20% or less in enzyme activity was observed, the compound was designated as non-inhibitory (N)) |  |
| Cc1ncc(C[n+]2csc(CCOP(=O)(O)OP(=O)(O)O)c2C)c(N)n1 [Thiamine-PPi] | N (Where a change of ±20% or less in enzyme activity was observed, the compound was designated as non-inhibitory (N)) |  |
| Oxidized glutathione |  | effect on protein kinase activity toward MBP (rSsoPK4(284–635) [2]; MBP substrate, compounds at 1 mM (Figure 8)): no effect |
| MBP: myelin basic protein, exogenous phosphoacceptor substrate (protein, UniProt P02687 1-169, looked up) Myelin basic protein: AAQKRPSQRSKYLASASTMDHARHGFLPRHRDTGILDSLGRFFGSDRGAPKRGSGKDGHHAARTTHYGSLPQKAQGHRPQDENPVVHFFKNIVTPRTPPPSQGKGRGLSLSRFSWGAEGQKPGFGYGGRASDYKSAHKGLKGHDAQGTLSKIFKLGGRDSRSGSPMARR |  | Km (rSsoPK4(284–635) [2]): 145 µM; Vmax toward protein substrate (rSsoPK4(284–635) [2]): 3.7 nmol/min/mg; Km [3]: 17 µM; Vmax toward protein substrate [3]: 4.2 nmol/min/mg |
| aIF2α: recombinant protein product of ORF sso1050, archaeal homologue of eIF2α from S. solfataricus (protein, UniProt Q97Z79 1-266, looked up) Translation initiation factor …: MIYSRSKLPSEGEILIATVKQVFDYGSYVSLDEYGGLQAFLPWSEVSSKWVKNIRDVLKENRKVIVKVIRVDRRKGTVDVSLKKVTDDERRKKNLQWKKIQRLDKILELVSQKLKLSEKDAWEQVAWKLEAKYGDPITAIEKAVKEGEKILIDAGVPEIWVKPLLEEASKHAEERKVKMSGLITVRTNEPLGVEKIKEVISKALENIEQDYESLLNIKIYTIGAPRYRVDVVGTNPKEASEALNQIISNLIKIGKEENVDISVVKK |  | Km (rSsoPK4(284–635) [2]): ~48 µM and 48 µM; Vmax toward protein substrate (rSsoPK4(284–635) [2]): 4.2 nmol/min/mg; Km [3]: 4 µM; Vmax toward protein substrate [3]: 1.9 nmol/min/mg |
